Reference: PubChem BioAssay AID179 (DTP/NCI, 2004)
Active and inactive are the calls of the source.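 Rule for the calls: active = compounds giving half or more protection of infected cells from virus-caused growth loss, again on retest; inactive = the rest.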 Where a SMILES comes first, the peptide text is derived from it. The star is where a group is joined. Cbz = O=C(OCc1ccccc1)*; Boc = CC(C)(C)OC(=O)*; OSu = O=C1CCC(=O)N1O*; Bn = c1ccc(C*)cc1

System: CEM cells HIV-1 protection, formazan growth assay
Assay: NCI AIDS Antiviral Assay
Details: for IC50: measured here: growth of uninfected CEM cells
How it was run: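 Steps: treat uninfected and HIV-1-infected human CEM cells at five drug levels; quantify growth by soluble formazan; retest any compound reaching 50% protection; classify actives from the retest.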

Row | Structure (SMILES) | EC50 [µM] | IC50 [µM] | outcome
1 | CC(=O)/C(=C/n1ccc(=O)[nH]c1=S)C(=O)Nc1ccc([N+](=O)[O-])cc1 | > 200 | 102 | –
2 | COc1ccc(CCNC(=O)[C@H]2CCCC[C@@H]2CCO)cc1OC | > 200 | > 200 | –
3 | Nc1c(N=Nc2ccc(/C=C/c3ccc(N=Nc4cc(S(=O)(=O)O)c5cccc(S(=O)(=O)O)c5c4N)cc3S(=O)(=O)O)c(S(=O)(=O)O)c2)cc(S(=O)(=O)O)c2cccc(S(=O)(=O)O)c12 | 8.71 | 77.6 | –
4 | CC(=O)OCC1=C(CCC#N)N2C(=O)C(NC(=O)Cc3cccs3)C2S(=O)C1 (stereo not drawn) | > 200 | 95.5 | –
5 | N#Cc1cc([N+](=O)[O-])ccc1NC(=O)C(=O)C(C(=O)/C=C/c1ccccc1)C1OC(=O)c2ccccc21 (stereo not drawn) | > 191 | > 191 | –
6 | COC(=O)C(=O)C(/C(=N/N)C(=O)Nc1ccccc1C(N)=O)c1nc2ccc([N+](=O)[O-])cc2[nH]c1=O (stereo not drawn) | > 501 | 204 | –
7 | O=C(N/N=C/c1ccccc1O)c1ccccc1Nc1ccccc1C(=O)N/N=C/c1ccccc1O | > 42.7 | 1.82 | –
8 | CCOC(=O)C(Cc1cccc2ccccc12)S(=O)(=O)c1ccc(C)cc1 (stereo not drawn) | > 66.1 | 18.6 | –
9 | CCCCCCC(c1ccc(O)c(C(=O)O)c1)c1ccc(O)c(C(=O)O)c1 | > 1000 | 166 | –
10 | O=C(NNC(=O)c1ccco1)c1ccco1 | > 200 | > 200 | –
11 | CC(=O)OCC1OC(n2ncc(=O)[nH]c2=O)C(OC(C)=O)C1OC(C)=O (stereo not drawn) | > 2 | 1.05 | –
12 | Cc1ccc(S(=O)(=O)C(C#N)c2nc3ccccc3nc2N2CCOCC2)cc1 (stereo not drawn) | > 16.6 | > 16.6 | –
13 | O=C(N/C(=C\c1ccc(/C=C(\NC(=O)c2ccccc2)c2nc3ccccc3[nH]2)cc1)c1nc2ccccc2[nH]1)c1ccccc1 | – | – | inactive
14 | c1cc2c(cc1[C@@H]1OC[C@@H]3[C@H]1CO[C@H]3c1ccc3c(c1)OCO3)OCO2 | > 200 | 79.4 | –
15 | COC(=O)c1ccc(OCc2ccc3nc(-c4ccccc4)c(Cl)nc3c2)cc1 | > 200 | > 200 | –
16 | O=C(OC1C#CCSCC#C/C=C\1)c1ccc2c(c1)C(=O)c1ccccc1C2=O (stereo not drawn) | > 200 | 69.2 | –
17 | O=P(O)(O)c1ccc(-c2ccc(I)cc2)cc1 | > 200 | > 200 | –
18 | COc1ccc(-c2c(C#N)c(-c3ccc(C)cc3)n(NS(=O)(=O)c3ccccc3)c(=O)c2C#N)cc1 | > 200 | 29.5 | –
19 | CCCC(=O)OC1CN2CC[C@H](O)C2C(O)[C@@H]1O (stereo partly drawn) | 2.29 | 955 | –
20 | CC(C)=CC(=O)O[C@@H]1CC(C)(C)CC2C3=CCC4[C@]56CC[C@](O)(OC5)C(C)(C)C6CC[C@@]4(C)C3(C)CC[C@]21C(=O)O (stereo partly drawn) | > 200 | 10.2 | –
21 | COc1cc(OC)c2c(c1)C(=O)c1cc(C)cc(O)c1C2=O | – | – | inactive

Row | Structure (SMILES) | EC50 [µM] | IC50 [µM] | outcome
22 | O=C1CCC2(c3ccc(F)cc3)Nc3ncccc3N12 (stereo not drawn) | > 132 | > 132 | –
23 | O=C1C/C(=C\O)C(=O)c2ccccc2N1 | 0.186 | > 200 | –
24 | CC1=CC(=O)N(n2c(Cc3ccc(Cl)cc3)n[nH]c2=O)C1=O | > 200 | > 200 | –
25 | Cc1ccc(S(=O)(=O)Sc2ccccc2)cc1 | > 135 | 21.9 | –
26 | C=CC(C)(C)C1(CC(OC)OC)C(=O)N(C)c2ccccc21 (stereo not drawn) | > 200 | > 200 | –
27 | CC(=N\N=C(N)N)/C(N=Nc1ccc(S(N)(=O)=O)cc1)=N\N=C(N)N | > 200 | 1.58 | –
28 | O=Nc1c(Br)cc(Br)c2ccc3c(Br)cc(Br)c(N=O)c3c12 | > 50.1 | > 50.1 | –
29 | CCN(CC)c1ccc2cc(-c3nc4ccccc4[nH]3)c(=O)oc2c1 | > 7.76 | > 7.76 | –
30 | CC(=O)CC(OC(C)=O)C1=CCC2C(CC1C)OC(=O)C2C (stereo not drawn) | > 224 | 39.8 | –
31 | OCC1OC(n2cnc3c(Cl)nc(Nc4ccccc4)nc32)CC1O (stereo not drawn) | > 200 | 28.2 | –
32 | Cc1ccc(N2CC(=O)N3CCCC(c4ccccc4)N3C(=O)C2)cc1 (stereo not drawn) | – | – | inactive
33 | O=C(CCCCCCCCC(=O)N1C(=O)CC(=O)N(c2ccc(Cl)cc2)C1=S)N1C(=O)CC(=O)N(c2ccc(Cl)cc2)C1=S | > 200 | 81.3 | –
34 | C[C@H](CCC(=O)O)[C@H]1CC[C@H]2[C@@H]3[C@H](O)[C@H](O)[C@@H]4C[C@H](O)CC[C@]4(C)[C@H]3CC[C@]12C | > 200 | 72.4 | –
35 | Cc1ccc(S(=O)(=O)n2cc(C=O)c(-c3cn(S(=O)(=O)c4ccc(C)cc4)cc3-c3cn(S(=O)(=O)c4ccc(C)cc4)cc3C=O)c2)cc1 | > 200 | 19.5 | –
36 | CC(=O)N(C)c1ccc2c(ccc[n+]2[O-])c1[N+](=O)[O-] | > 955 | > 955 | –
37 | CCCC1C/C=C/C=C/C=C/C=C/C(OC2OC(C)C(O)C(N)C2O)CC(O)C(C(=O)O)C(O)CC(=O)CC(O)CCCC(=O)CC(O)C(CC)C(=O)O1 (stereo not drawn) | – | – | inactive
38 | CNC(=O)Nc1ccncc1 | > 200 | > 200 | –
39 | Cc1cc(-c2ccc(N=Nc3c(S(=O)(=O)O)cc4cc(S(=O)(=O)O)cc(N)c4c3O)c(C)c2)ccc1N=Nc1cc(S(=O)(=O)O)c2ccccc2c1O | – | – | inactive
40 | CCOc1cc(C2=NNc3n[nH]c(=S)n3N2)ccc1O | 151 | 331 | –
41 | C=Cc1ccncc1 | > 200 | > 200 | –
42 | C[C@]12CCc3nonc3C1CC[C@@H]1C2CC[C@]2(C)C(=O)CCC12 (stereo partly drawn) | > 83.2 | > 83.2 | –

Row | Structure (SMILES) | EC50 [µM] | IC50 [µM] | outcome
43 | CC12CC(Sc3ccccc3N1)c1ccccc1O2 (stereo not drawn) | > 132 | 21.4 | –
44 | O=[As]c1ccc(C(=O)O)cc1 (stereo not drawn) | > 1170 | 245 | –
45 | Cc1nn(-c2ccccc2)c2c1S(=O)(=O)c1ccccc1-2 | > 112 | 69.2 | –
46 | CC1(C)CSCC(C)(C)C(=N/N)/C1=N\N | > 200 | > 200 | –
47 | COC1CC(CC(C)O)CN(C#N)CCc2c1[nH]c1ccccc21 (stereo not drawn) | > 79.4 | > 79.4 | –
48 | O=[N+]([O-])c1ccc(Cl)c(SSc2cc([N+](=O)[O-])ccc2Cl)c1 | > 39.8 | 14.1 | –
49 | CC(CC[C@@H](O)C(C)(C)O)C1[C@@H](O)CC2(C)C3CC(O)C4C(C)(C)[C@@H](OC5OC(CO)C(O)C(O)C5O)CC[C@@]45C[C@@]35CC[C@]12C (stereo partly drawn) | > 200 | > 200 | –
50 | CCN(CC)CCN1CC(=O)N2CCCCN2C(=O)C1 | > 200 | > 200 | –
51 | CO[C@H]1O[C@@H]2OC3(C)CCC4[C@H](C)CCC([C@H]1C)[C@]42OO3 (stereo partly drawn) | > 200 | 112 | –
52 | CC(CCCOC(c1ccccc1)(c1ccccc1)c1ccccc1)OC(=O)Nc1ccccc1 (stereo not drawn) | > 28.8 | > 28.8 | –
53 | O=C1CCCCCCCCCCC1CN(Cc1ccccc1)Cc1ccccc1 (stereo not drawn) | – | – | inactive
54 | CN(C)C1C(=O)C(C(=O)NCNCCCO)=C(O)C2(O)C(=O)C3=C(O)c4c(O)cccc4C(C)(O)C3CC12 (stereo not drawn) | > 204 | > 100 | –
55 | CCOC/N=C(/N)NC#N | > 631 | > 631 | –
56 | Cc1cccc2c1c(=O)c1c(O)cc(O)cc1n2C | > 200 | > 200 | –
57 | C=C1C(C(=O)O)C1C(=O)O (stereo not drawn) | – | – | inactive
58 | CC(C)c1cccc(C(C)C)c1NC(=O)C(=O)C1SC(=S)NC1=O (stereo not drawn) | > 692 | > 692 | –
59 | O=C(O)c1nn(-c2ccccn2)c(O)c1N=Nc1ccc(/C=C/c2ccc(N=Nc3c(C(=O)O)nn(-c4ccccn4)c3O)cc2S(=O)(=O)O)c(S(=O)(=O)O)c1 | > 20.4 | > 20.4 | –
60 | CC1(C)OC(=O)C(C#N)=C1C[n+]1ccccc1 | > 263 | > 263 | –
61 | COC(=O)c1ncn(C)c1O | > 200 | > 200 | –
62 | C=C1CC[C@]2(C)C3CC[C@]4(C)C(C(C)CCC(=O)OC)CCC4[C@@H]3CC[C@@H]2C1 (stereo partly drawn) | > 87.1 | > 87.1 | –
63 | CC12OC3(C(O)C1O)C(C(=O)O[C@H]3CO[Si](C)(C)C(C)(C)C)C2S(=O)(=O)c1ccccc1 (stereo partly drawn) | – | – | inactive

Row | Structure (SMILES) | EC50 [µM] | IC50 [µM] | outcome
64 | COC(=O)C(c1ccccc1)C(SCc1ccccc1)c1ccccc1 (stereo not drawn) | > 200 | > 200 | –
65 | CCOC(=O)c1c2c(n3ccccc13)C(=O)C(C)(C(=O)OCC)S2 (stereo not drawn) | – | – | active
66 | CC(=O)NCC1(c2ccccc2)CCN(CC2COc3ccccc3O2)CC1 (stereo not drawn) | > 200 | > 200 | –
67 | Cc1c2n(c(=O)[nH]c1=O)C1OC(CO)C(N=[N+]=[N-])C1O2 (stereo not drawn) | > 200 | > 200 | –
68 | O=C(O)CCCCCCCC(=O)O | > 1320 | > 1320 | –
69 | CC(=O)O[C@]12CCCCCC1C1(O)C(O)CCCC[C@H]12 (stereo partly drawn) | > 200 | > 200 | –
70 | C1=C[C@@H]2c3ccc4cnccc4c3NC[C@@H]2C1 | > 589 | 36.3 | –
71 | Cc1cccc(C)c1NC(=S)NNC(=O)NNC(=S)Nc1c(C)cccc1C | > 200 | > 200 | –
72 | Cc1c(C(=O)O)c2cc3ccccc3cc2c(=O)n1C | > 200 | > 200 | –
73 | S=C(N1CCN(c2ccccc2)CC1)N1CCN(c2ccccc2)CC1 | > 200 | > 200 | –
74 | CC1=C(/C=C/C(C)=C/C=C/C(C)=C/C=C/C=C(C)/C=C/C=C(C)/C=C/C2=C(C)C(=O)C(O)CC2(C)C)C(C)(C)CC(O)C1=O (stereo not drawn) | > 43.7 | > 43.7 | –
75 | Cc1ccc(NC2=N/C(=C/c3ccco3)C(Cl)=N2)cc1 | > 200 | 158 | –
76 | CC(C)(C)OC(=O)NC(Cc1ccc(OCc2ccccc2)cc1)C(=O)NC(CCCCNC(=O)OCc1ccccc1)C(=O)NC(CCCCNC(=O)OCc1ccccc1)C(=O)ON1C(=O)CCC1=O (stereo not drawn) (Boc-Tyr(Bn)-Lys(Cbz)-Lys(Cbz)-OSu; configuration not given here) | > 100 | 46.8 | –
77 | COc1cccc(/C=N/[N-]C(=O)c2ccncc2)c1[O-].[Ni+2].[OH3+] | > 105 | > 105 | –
78 | COc1cc(C(C#N)NNc2nc(C)cc(=O)[nH]2)cc(OC)c1OC (stereo not drawn) | > 105 | > 105 | –
79 | c1ccc(C2NC(c3ccccc3)N3C(c4ccccc4)N23)cc1 (stereo not drawn) | > 16.6 | > 16.6 | –
80 | O=C1/C(=C\c2cccc(Oc3ccccc3)c2)S(=O)(=O)C(c2ccccc2)N1c1cccc([N+](=O)[O-])c1 (stereo not drawn) | > 200 | 9.55 | –
81 | COc1ccc2c(c1)OC1(OCCO1)[C@@H]1C2CC[C@@]2(C)C1CCC21OCCO1 (stereo partly drawn) | > 18.6 | > 18.6 | –
